Source: patent US20230123334A1, “AMINO LIPID COMPOUND, PREPARATION METHOD THEREFOR, AND APPLICATION THEREOF” (SHENZHEN SHENXIN BIOTECHNOLOGY CO., LTD., priority 2020, published 2023)

What was measured:
Format in all cases: cell-based
[1] = tested on: cardiomyocytes; assay: Screening as DNA vectors in cardiomyocytes; parameters: concentration or dose not given beside the values; conditions: method as Example 4
Procedure, shortened: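 hESC-derived cardiomyocytes in DMEM with 10% FBS were transfected with a GFP DNA vector; Lipofectamine Stem served as positive control. Read-out: percentage of GFP-positive cells relative to total cells counted by Hoechst nuclear stain.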

[2] = tested on: HEK293 cells; assay: Preliminary screening as mRNA vectors, EGFP mRNA transfection of HEK293 cells; conditions: HEK293 cells, 96-well plates, EGFP mRNA 50 ng per well; percentage of GFP fluorescent cells relative to total number of cells (Hoechst)
Procedure, shortened: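 Each well of HEK293 cells received 50 ng of EGFP mRNA. Efficiency was expressed as percent GFP-expressing cells over Hoechst-defined total cell number.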

[3] = tested on: MCF7 cells; assay: Transfection of MCF7 cell line, DNA vectors; parameters: concentration or dose not given beside the values; conditions: plasmid DNA, GFP cells / total cells
Procedure, shortened: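 MCF7 cells in DMEM with fetal bovine serum were transfected in 96-well format. Read-out was the percentage of GFP-fluorescent cells among total cells counted by Hoechst nuclear stain. Lipofectamine2000 served as positive control.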

[4] = tested on: Hela cells; assay: Transfection of Hela cell line, mRNA vectors; conditions: 50 ng EGFP mRNA per well
Procedure, shortened: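 HeLa cells in DMEM with 10% FBS transfected with 50 ng EGFP mRNA per well. Readout is percentage of GFP-positive cells among total cells counted by Hoechst nuclear stain; Lipofectamine2000 served as positive control.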

[5] = tested on: embryonic stem cells (hESC2); assay: Screening as mRNA vectors in embryonic stem cells; conditions: 50 ng EGFP mRNA per well
Procedure, shortened: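 EGFP mRNA (50 ng per well) transfected into hESC2 cells grown in mTeSR1; Lipofectamine Stem served as positive control. Read-out: GFP-fluorescent cells as percentage of total cells.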

[6] = tested on: cardiomyocytes; assay: Screening as mRNA vectors in cardiomyocytes; conditions: 50 ng EGFP mRNA per well
Procedure, shortened: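 Cardiomyocytes differentiated from hESC, in DMEM with 10% FBS, were transfected with 50 ng EGFP mRNA per well. The read-out was GFP-positive cells as a percentage of Hoechst-stained nuclei, with Lipofectamine Stem as positive control.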

[7] = tested on: MCF7 cells; assay: Transfection of MCF7 cell line, mRNA vectors; conditions: 50 ng EGFP mRNA per well
Procedure, shortened: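 MCF7 cells in DMEM with fetal bovine serum were transfected with 50 ng EGFP mRNA per well. Read-out was the percentage of GFP-positive cells among total Hoechst-stained nuclei, with Lipofectamine2000 as positive control.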

[8] = tested on: HEK293 cells; assay: Preliminary screening as DNA vectors, GFP transfection of HEK293 cells; conditions: HEK293 cells; lipid/DOPE liposome with 75 ng plasmid DNA (psin-EGFP-IRES-Puro); number of cells expressing GFP divided by total number of nuclei (Hoechst)
Procedure, shortened: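 Lipid + DOPE liposomes (NaOAc, pH 5.6) complexed w/ 75 ng psin-EGFP-IRES-Puro, 30 min RT; added to 3-5×10^4 HEK293/well, 37° C. Hoechst 0.2 μg/mL at 20-24 h, imaged after further 20-24 h. Efficiency = GFP+ cells / total nuclei.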

[9] = tested on: Hela cells; assay: Transfection of Hela cell line, DNA vectors; conditions: 75 ng plasmid DNA, GFP cells / total cells
Procedure, shortened: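 Amino lipid/DOPE liposomes in sodium acetate pH 5.6 were complexed with 75 ng psin-EGFP-IRES-Puro plasmid for 30 min at room temperature, then mixed with 3-5×10^4 Hela cells in DMEM/10% FBS at 37° C. Hoechst stain after 20-24 h, imaging after a further 20-24 h. Efficiency = GFP-positive cells / total nuclei.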

[10] = tested on: embryonic stem cells (hESC2); assay: Screening as DNA vectors in embryonic stem cells, flow cytometry; conditions: 75 ng plasmid DNA, 48 hours after transfection, flow cytometer
Procedure, shortened: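 hESC2 cells in mTeSR1 on matrigel transfected with 75 ng pSin-EGFP-IRES-Puro complexed with amino lipid/DOPE liposomes formed in sodium acetate pH 5.6; 37 °C, 5% CO2. After 48 h, GFP-positive cells counted by flow cytometry (≥2000 cells), efficiency also expressed relative to Lipofectamine Stem.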

| Structure (SMILES) | Absolute DNA transfection efficiency in cardiomyocytes [1] | Absolute mRNA transfection efficiency in HEK293 cells [2] | Absolute DNA transfection efficiency in MCF7 cells [3] | Absolute mRNA transfection efficiency in Hela cells [4] | Absolute mRNA transfection efficiency in embryonic stem cells [5] | Absolute mRNA transfection efficiency in cardiomyocytes [6] | Absolute mRNA transfection efficiency in MCF7 cells [7] | Absolute DNA transfection efficiency in HEK293 cells [8] | Absolute DNA transfection efficiency in Hela cells [9] | Absolute DNA transfection efficiency in embryonic stem cells [10] |
| --- | --- | --- | --- | --- | --- | --- | --- | --- | --- | --- |
| CCCCCCCCCCCCCCCSc1nc(NCCCN(C)C)nc(SCCCCCCCCC)n1 [Compound S9S15D6] | 6.9% | 87.2% | 48.4% | 23.7% | 2.5% | 12.9% | 47.3% | 47.4% | 23.7% | 3.7% |
| CCCCCCCCCCCCSc1nc(NCCN2CCN(C)CC2)nc(SCCCCCCCCC)n1 [Compound S9S12D5] | 1.7% | 57.5% | 32.0% | 10.8% | 27.3% | 1.2% | 27.3% | 21.0% | 10.8% | 4.6% |
| CCCCCCCCCCCCCCSc1nc(NCCN2CCCC2)nc(SCCCCCCCCC)n1 [Compound S9S14D3] | 0.5% | 2.3% | 1.3% | 2.5% | 19.7% | 72.4% | 4.4% | 5.1% | 2.4% | 1.6% |
| CCCCCCCCCCCCSc1nc(NCCCN2CCN(C)CC2)nc(SCCCCCCCCC)n1 [Compound S9S12D9] | 5.9% | 60.9% | 33.8% | 19.6% | 20.6% | 69.3% | 5.1% | 39.3% | 19.6% | 7.6% |
| CCCCCCCCCCCCCCCSc1nc(NCCCN2CCOCC2)nc(SCCCCCCCCC)n1 [Compound S9S15D8] | 2.0% | 5.4% | 3.0% | 11.1% | 0.4% | 0.6% | 13.5% | 22.2% | 11.1% | 1.9% |
| CCCCCCCCCCCCCCSc1nc(NCCN2CCN(C)CC2)nc(SCCCCCCCCC)n1 [Compound S9S14D5] | 4.6% | 32.3% | 17.9% | 7.32% | 22.5% | 0.6% | 2.1% | 14.6% | 7.3% | 0.7% |
| CCCCCCCCCCCCSc1nc(NCCN2CCCC2)nc(SCCCCCCCCC)n1 [Compound S9S12D3] | 2.7% | 5.3% | 3.0% | 2.4% | 21.4% | 65.7% | 6.5% | 4.9% | 2.4% | 5.3% |
| CCCCCCCCCCCCCCSc1nc(NCCCN2CCN(C)CC2)nc(SCCCCCCCCC)n1 [Compound S9S14D9] | 11.1% | 68.8% | 38.2% | 14.8% | 16.4% | 12.4% | 19.1% | 28.4% | 14.8% | 2.5% |
| CCCCCCCCCCCCSc1nc(NCCCN2CCOCC2)nc(SCCCCCCCCC)n1 [Compound S9S12D8] | 5.8% | 13.8% | 7.7% | 15.8% | 1.7% | 0.9% | 12.6% | 30.4% | 15.8% | 11.1% |
| CCCCCCCCCCCCCCCSc1nc(NCCCN2CCN(C)CC2)nc(SCCCCCCCCC)n1 [Compound S9S15D9] | 1.3% | 40.4% | 22.5% | 12.6% | 13.3% | 7.1% | 27.6% | 25.3% | 12.6% | 21.6% |
| CCCCCCCCCCCCCCSc1nc(NCCCN(C)C)nc(SCCCCCCCCC)n1 [Compound S9S14D6] | 10.5% | 80.0% | 44.4% | 9.6% | 1.7% | 8.5% | 12.2% | 19.2% | 9.6% | 2.0% |
